Source: patent US9938222B2 (BRISTOL-MYERS SQUIBB COMPANY, priority 2014, dated 2018)
pEC50: −log10 of the molar value.

Biological target: human GPR120 (Homo sapiens (Human), UniProt Q5NUL3)
Experiment: GPR120 pERK AlphaScreen SureFire Assay (human GPR120 pERK assay)
Assay type: cell-based
Details: CHO cells stably transfected with short form of human GPR120
Description: GPR120 activity was monitored by measuring phosphorylation of ERK (pERK), since G protein receptors are known to activate the ERK signaling cascade either directly and/or through recruitment of arrestin that serves as a scaffold for downstream signaling events.
GPR120 pERK AlphaScreen SureFire Assay
The human and mouse GPR120-mediated intracellular phosphorylated ERK assays were established using CHOA12 cells stably transfected with the short form of human or mouse GPR120 receptor. Cells were cultured in growth medium consisting of F-12 media (Invitrogen Cat. #11765) with 5% Charcoal/Dextran FBS (Invitrogen Cat. #12676-029), 500 μg/mL GENETICIN® (Life Technologies Cat. #10131-027) and 250 μg/mL Zeocin (Invitrogen Cat. #R250-01). Cells were cryo-preserved at a concentration of 2×10^7 cells/mL, in 90% Charcoal/Dextran FBS and 10% DMSO, and frozen in liquid nitrogen at a low passage number.
For the pERK assay, 2×10^7 cells/mL cryopreserved human and mouse cells were thawed rapidly in a 37° C. water bath and added to a T-225 flask containing 50 mL growth medium. The flasks were placed in a tissue culture incubator overnight (37° C., 5% CO2). The next day, cells were harvested with trypsin (Gibco Cat. #25300-054), resuspended in serum-containing growth medium and counted using a Cellometer and volume adjusted to a concentration of 0.6×10^6 cells/mL. Cells were plated into 384-well clear bottom tissue culture plates (BD Cat. #353962) at 50 μL/well, for a density of 30,000 cells/well using a MULTIDROP® and incubated for 16-18 hours (overnight) at 37° C. with 5% CO2. The next day, cells were serum starved in 30 μL of F-12 media without any serum or antibiotics for 2 hours at 37° C.
Test compounds were 3-fold, 11-point serially diluted in DMSO in a REMP assay plate (Matrix Cat. #4307) by Tecan and 5 μL was transferred into an ECHO source plate (Labcyte Cat. #LC-0200). Cells were then stimulated with 50 nL of compound dilutions using ECHO liquid handler for 7 min at 37° C. Compounds ranged from final assay concentrations of 33.33 μM to 0.56 nM.
The media was then dumped and cells lysed with 20 μL of 1× Lysis buffer from the AlphaScreen SureFire Phospho-ERK 1/2 Kit (Perkin Elmer Cat. #6760617M). The lysis buffer was diluted 5-fold with water before use. The plate was agitated on a shaker for 10 min after which 2 μL was transferred into a 384-well white proxiplate (Perkin Elmer Cat. #6008289). The SureFire assay reagent mix was prepared by mixing 60 parts Reaction Buffer, 10 parts Activation Buffer, 1 part Donor Beads, 1 part Acceptor Beads (Perkin Elmer Cat. #TGRES10K). 3.5 μL/well of this reagent mix was manually added to the proxiplate with a multichannel pipettor. Plates were spun down at 1000 rpm for 2 min, followed by light-protected incubation at room temperature for 2 hours. The plates were read on the Alpha-technology compatible Envision multilabel plate reader using AlphaScreen protocol according to manufacturer's specifications. The agonist effect of compounds was expressed as 100×(average sample-average blank)/(average total-average blank) where sample is the luminescence activity in the presence of test compound, blank is equal to the luminescence activity in the presence of DMSO control and the total is signal induced by 50 μM linolenic acid as reference compound. Activation data for the test compound over a range of concentrations was plotted as percentage activation of the test compound (100%=maximum response). After correcting for background, EC50 values were determined. The EC50 is defined as the concentration of test compound which produces 50% of the maximal response and was quantified using the 4 parameter logistic equation to fit the data.
The human and mouse GPR120-mediated intracellular phosphorylated ERK assays were also established using CHO-K1 cells stably transfected with the short form of human or mouse GPR120 receptor. […]

Chain of human GPR120 (Q5NUL3 whole entry): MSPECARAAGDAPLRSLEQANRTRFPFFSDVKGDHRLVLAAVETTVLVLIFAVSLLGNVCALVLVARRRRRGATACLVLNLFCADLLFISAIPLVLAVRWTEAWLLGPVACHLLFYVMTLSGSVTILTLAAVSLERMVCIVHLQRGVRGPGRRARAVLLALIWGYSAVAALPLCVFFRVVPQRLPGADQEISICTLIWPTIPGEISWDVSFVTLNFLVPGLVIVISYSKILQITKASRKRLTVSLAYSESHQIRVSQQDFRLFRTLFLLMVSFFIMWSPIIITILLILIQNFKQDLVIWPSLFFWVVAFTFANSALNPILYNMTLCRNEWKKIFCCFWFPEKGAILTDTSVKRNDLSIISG

O=C(O)[C@@H]1C[C@H]1COc1ccc(-c2cnn(Cc3ccccc3)c2)cc1 (racemic) [Example 83, Trans-2-((4-(1-benzyl-1H-pyrazol-4-yl)phenoxy)methyl)cyclopropanecarboxylic acid]
pEC50: 5.52

CC(C)Oc1ccc(F)c(-c2ccc(CC[C@H]3C[C@]3(C)C(=O)O)cc2)c1 (racemic) [Example 41, Trans-2-(2-(2′-fluoro-5′-isopropoxy-[1,1′-biphenyl]-4-yl)ethyl)-1-methylcyclopropanecarboxylic acid]
pEC50: 6.07

CC(C)Oc1cc(Cl)cc(-c2ccc(OC[C@@H]3C[C@H]3C(=O)O)cc2)c1 (racemic) [Example 120, Trans-2-(((3′-chloro-5′-isopropoxy-[1,1′-biphenyl]-4-yl)oxy)methyl) cyclopropanecarboxylic acid]
pEC50: 6.21

O=C(O)[C@@H]1C[C@H]1COc1ccc(-c2cc(F)cc(Oc3ccccc3)c2)cc1 (racemic) [Example 23, Trans-2-(((3′-fluoro-5′-phenoxy-[1,1′-biphenyl]-4-yl)oxy)methyl)cyclopropanecarboxylic acid]
pEC50: 6.18

CC(C)Oc1ccc(F)c(-c2ccc(OC[C@@H]3C[C@H]3C(=O)O)c(C=O)c2)c1 (racemic) [Example 87, Trans-2-(((2′-fluoro-3-formyl-5′-isopropoxy-[1,1′-biphenyl]-4-yl)oxy)methyl) cyclopropanecarboxylic acid]
pEC50: 5.75

O=C(O)[C@@H]1C[C@H]1COc1ccc(-c2cc(Oc3cccc(F)c3)ccc2F)cc1F (relative stereo) [Example 96, Trans-2-(((2′,3-difluoro-5′-(3-fluorophenoxy)-[1,1′-biphenyl]-4-yl)oxy)methyl) cyclopropanecarboxylic acid]
pEC50: 6.74

CC(C)Oc1ccc(F)c(-c2ccc(C[C@@H]3C[C@H]3CC(=O)O)cc2)c1 (single isomer, unassigned) [Example 35, Trans-(2-((2′-fluoro-5′-isopropoxy-[1,1′-biphenyl]-4-yl)methyl)cyclopropyl)acetic acid]
pEC50: 6.48

CC(C)Oc1cc(F)c(F)c(-c2ccc(OC[C@@H]3C[C@H]3C(=O)O)c(F)c2)c1 (racemic) [Example 65, Trans-2-(((2′,3,3′-trifluoro-5′-isopropoxy-[1,1′-biphenyl]-4-yl)oxy)methyl)cyclopropanecarboxylic acid]
pEC50: 6.48

CC(C)Oc1cc(Cl)cc(-c2ccc(OC[C@H]3C[C@@H]3C(=O)O)c(F)c2)c1 (single isomer, unassigned) [Example 14]
pEC50: 6.08

Cc1ccc(Oc2ccc(F)c(-c3ccc(OCC4CC4C(=O)O)c(F)c3)c2)cc1F (single isomer, unassigned) [Example 101, Trans-2-(((2′,3-difluoro-5′-(3-fluoro-4-methylphenoxy)-[1,1′-biphenyl]-4-yl)oxy)methyl)cyclopropanecarboxylic acid]
pEC50: 6.89

Cc1ccc(Oc2ccc(F)c(-c3ccc(OC[C@@H]4C[C@H]4C(=O)O)cc3)c2)cn1 (racemic) [Example 114, Trans-2-(((2′-fluoro-5′-((6-methylpyridin-3-yl)oxy)-[1,1′-biphenyl]-4-yl)oxy)methyl) cyclopropanecarboxylic acid]
pEC50: 6.85

CC(C)Oc1ccc(F)c(-c2ccc(C[C@H]3C[C@@H]3CC(=O)O)cc2)c1 (single isomer, unassigned) [Example 36, Trans-(2-((2′-fluoro-5′-isopropoxy-[1,1′-biphenyl]-4-yl)methyl)cyclopropyl)acetic acid]
pEC50: 7.22

Cc1ccc(Oc2ccc(F)c(-c3ccc(OCC4C[C@H]4C(=O)O)cc3)c2)cn1 (stereo partly drawn) [Example 115]
pEC50: 6.72

COc1ccc(OC(F)(F)F)cc1-c1ccc(OC[C@@H]2C[C@H]2C(=O)O)cc1 (racemic) [Example 71, Trans-2-(((2′-methoxy-5′-(trifluoromethoxy)-[1,1′-biphenyl]-4-yl)oxy)methyl)cyclopropanecarboxylic acid]
pEC50: 5.84

CC(C)Oc1cc(-c2ccc(OC[C@@H]3C[C@H]3C(=O)O)cc2)c(F)c(C(F)(F)F)c1 (racemic) [Example 49, Trans-2-(((2′-fluoro-5′-isopropoxy-3′-(trifluoromethyl)-[1,1′-biphenyl]-4-yl)oxy)methyl)cyclopropanecarboxylic acid]
pEC50: 5.78

CC(C)Oc1cccc(-c2ccc(CC[C@@H]3C[C@H]3C(=O)O)cc2)c1 (racemic) [Example 131, Trans-2-(2-(3′-isopropoxy-[1,1′-biphenyl]-4-yl)ethyl) cyclopropanecarboxylic acid]
pEC50: 6.04

O=C(O)[C@@H]1C[C@H]1COc1ccc(-c2cc(Cl)cc(C(F)(F)F)c2)cc1 (racemic) [Example 124, Trans-2-(((3′-chloro-5′-(trifluoromethyl)-[1,1′-biphenyl]-4-yl)oxy)methyl)cyclopropanecarboxylic acid]
pEC50: 5.61

COc1ccc(OC(F)(F)F)cc1-c1ccc(CC[C@@H]2C[C@H]2C(=O)O)cc1 (racemic) [Example 79, Trans-2-(2-(2′-methoxy-5′-(trifluoromethoxy)-[1,1′-biphenyl]-4-yl)ethyl)cyclopropanecarboxylic acid]
pEC50: 5.84

CC(C)Oc1ccc(F)c(-c2ccc(CC[C@H]3C[C@@H]3C(=O)O)cc2)c1 (single isomer, unassigned) [Example 32]
pEC50: 6.00

O=C(O)[C@H]1C[C@@H]1COc1ccc(-c2cc(Oc3ccccc3)ccc2F)cc1F (racemic) [Example 9, (Trans)-(+/−)-2-(((2′,3-difluoro-5′-phenoxy-[1,1′-biphenyl]-4-yl)oxy)methyl) cyclopropanecarboxylic acid]
pEC50: 7.10

CC(C)Oc1cc(Cl)cc(-c2ccc(OC[C@@H]3C[C@H]3C(=O)O)c(F)c2)c1 (single isomer, unassigned) [Example 13]
pEC50: 6.19

CC(C)Oc1ccc(F)c(-c2ccc(OC[C@H]3C[C@@H]3C(=O)O)cc2)c1 (single isomer, unassigned) [Example 2]
pEC50: 6.60

O=C(O)[C@@H]1C[C@H]1COc1ccc(-c2cc(Oc3cccc(F)c3)ccc2F)cc1 (racemic) [Example 42, Trans-2-(((2′-fluoro-5′-(3-fluorophenoxy)-[1,1′-biphenyl]-4-yl)oxy)methyl)cyclopropanecarboxylic acid]
pEC50: 6.74

CC1(C)Cc2c(ccc(F)c2-c2ccc(OCC3CC3C(=O)O)cc2)O1 (stereo not drawn) [Example 22, 2-((4-(5-Fluoro-2,2-dimethyl-2,3-dihydrobenzofuran-4-yl)phenoxy)methyl) cyclopropanecarboxylic acid]
pEC50: 5.90

COCCc1cc(-c2cc(OC(C)C)ccc2F)ccc1OC[C@@H]1C[C@H]1C(=O)O (racemic) [Example 89, Trans-2-(((2′-fluoro-5′-isopropoxy-3-(2-methoxyethyl)-[1,1′-biphenyl]-4-yl)oxy)methyl) cyclopropanecarboxylic acid]
pEC50: 5.49

CC[C@@H](C)Oc1ccc(F)c(-c2ccc(OCC3CC3C(=O)O)cc2)c1 (stereo partly drawn) [Example 93, Trans-2-(((5′-((R)-sec-butoxy)-2′-fluoro-[1,1′-biphenyl]-4-yl)oxy)methyl) cyclopropanecarboxylic acid]
pEC50: 6.52

Cc1cc(-c2ccc(OC[C@@H]3C[C@H]3C(=O)O)cc2)n(-c2ccc(Cl)cc2)n1 (racemic) [Example 82, Trans-2-((4-(1-(4-chlorophenyl)-3-methyl-1H-pyrazol-5-yl)phenoxy)methyl) cyclopropanecarboxylic acid]
pEC50: 5.30
